The subject of test [1] is Novikoff hepatoma cells. The test is described as follows: Proliferation of Novikoff hepatoma cells, cell count per flask after four days of cultivation. Type of test: cell-based. To be noted: FIGS. 1 and 2. The source says: The Novikoff hepatoma cells that were used derived from the Tumor Bank of the German Cancer Research Center, Heidelberg (Cancer Research 1951, 17, 1010). 100,000 cells were spread out per 25 cm^2 of cultivation surface on each occasion. After having been dissolved in a solvent, such as e.g. water, diluted ethanol, dimethyl sulfoxide or a similar material that is suitable for use in cell cultures, the substance in accordance with the invention according to Example 1, or L-cycloserine, or dehydrothreonine was added to the culture medium in increasing concentrations, e.g. L-cycloserine (Compound 16) or dehydrothreonine (Compound 2) in the range of concentrations from 80 μM-5000 μM; and carbomethoxypropionyl cyanide (Compound 13) in the range of concentrations from 100 μM-300 μM. The cell count per flask was enumerated after four days of cultivation.

In test [2] the test system is Novikoff cells. The test can be described thus: Effect on the metabolism (flow of glycolysis) of Novikoff cells. Type of test: cell-based. The settings on record: FIG. 3.

The text below walks through data of US20040152772A1, “1-butyric acid derivatives and the use thereof” (priority 2001, published 2004).

Consider `C/C(O)=C(/N)C(=O)O` [Compound 2, dehydrothreonine], for which the “inhibition of proliferation (cell count per flask) in comparison to the control sample” value in test [1] (concentrations 80 μM-5000 μM) is recorded as “dose-dependent inhibition of proliferation”.

For the molecule `COC(=O)CCC(=O)C#N` [Compound 9, methyl ester of 4-cyano, 4-oxo-butanoic acid], the “inhibition of proliferation (cell count per flask) in comparison to the control sample” value in test [1] (concentrations 100 μM-300 μM) was “dose-dependent inhibition of proliferation”. Besides, in test [2], the flow of glycolysis entry is “massively inhibited the flow of glycolysis”.

As to `N[C@H]1CONC1=O` [Compound 16, L-cycloserine], in test [1] (concentrations 80 μM-5000 μM), the “inhibition of proliferation (cell count per flask) in comparison to the control sample” value is reported as “dose-dependent inhibition of proliferation”.
